# Assay results as given in US9945845B2, “Methods of screening using amphibians” (priority 2009, dated 2018).
# “Also recorded” adds a separate entry of the source. Read-outs that look alike come from different tables or passages of the source.
# Key:
# [1] = test system: blood vessel development and/or lymphangiogenesis in Xenopus embryos; format: in vivo, Xenopus laevis; conditions: for blood vessel development phenotype (apj expression, in words): 20 μM from stage 31, fixed at stage 35/36; for ISV phenotype: intersomitic vessels; for PCV phenotype: posterior cardinal vein; for VVN phenotype: vitelline vein network; for lymph vessel development phenotype (vegfr3 expression, in words): 20 μM from stage 31, fixed at stage 42; for ALH phenotype: anterior lymph heart; for ALS phenotype: anterior lymph sac; for PLV phenotype: posterior lymph vessels
# Method: All chemicals were purchased from Sigma and 10-mM stock solutions in DMSO were prepared. Chemicals were used at a final concentration of 20 μM in screening medium to treat homozygous albino Xenopus embryos, which lack natural pigmentation. Chemical treatments of embryos (n=7 per well) was initiated at stage 31 (37 hpf) and terminated at stages 35/36 (50 hpf) or 42 (80 hpf). Embryos were fixed in 4% paraformaldehyde and processed for whole mount in situ hybridization.
# Where albino embryos were used, the bleaching step was omitted. Semi-automated whole mount in situ hybridizations were performed using the Biolane HTI machine (Hölle & Hüttner AG, Germany). […] Images were captured using a stereomicroscope (SteREO Lumar V12; Carl Zeiss) equipped with a digital camera (AxioCam Color; Carl Zeiss). Composite figures were organized and labeled using Adobe Photoshop CS2 and Adobe Illustrator CS software.
# Edema formation or late-stage lethality may result from excretory system defects, (cardio)vascular and/or lymphatic vascular pathologies. […] Embryos were fixed for in situ hybridization either at stage 35/36 to analyze vasculogenesis and intersomitic vein angiogenesis defects or at stage 42 to evaluate possible defects in lymph vessel development (FIGS. 3-5).
# Xenopus embryos = conditions: for Lethality: — = no stage of lethality given; for Embr. phen.: embryonic phenotype in the primary screen; for Type of edema Ventral: ‡ = edemas also detected in the gut
# Summary of the method: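 Stage 31 (37 hpf) Xenopus embryos, five per well, exposed to 20 µM compound in 1% DMSO at 23 °C for 4 days. Edema, lethality and other external phenotypes were scored daily by two investigators at stages 39, 41, 45 and 47.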
# [2] = compounds causing lethality, 20 μM, 1% DMSO, treatment from stage 31, Nieuwkoop & Faber stage
# [3] = compounds causing edema, 20 μM, 1% DMSO, treatment from stage 31, scored to stage 47
# [4] = onset of edema, 20 μM, 1% DMSO, treatment from stage 31, Nieuwkoop & Faber stage
# [5] = onset of other phenotypic defects, 20 μM, 1% DMSO
# [6] = compounds causing cytotoxicity, 20 μM, 1% DMSO, treatment from stage 31, Nieuwkoop & Faber stage
# [7] = onset of pigmentation defects, 20 μM, 1% DMSO
compound,measurement,setting,value
Clc1ccc(C(c2ccc(Cl)cc2)n2cc[n+](CC(OCc3ccc(Cl)cc3Cl)c3ccc(Cl)cc3Cl)c2)cc1 (stereo not shown) [Calmidazolium chloride],"blood vessel development phenotype (apj expression, in words)",[1],"promoting ectopic, premature angiogenesis; also recorded: ectopic sprouting phenotype was even more pronounced"
same,ISV phenotype,[1]; Xenopus embryos,ectopic
same,PCV phenotype,[1]; Xenopus embryos,normal
same,VVN phenotype,[1]; Xenopus embryos,hyperplastic
same,Lethality (NF),Xenopus embryos; [2],37/38
"Cc1cc(N)c2ccccc2[n+]1CCCCCCCCCC[n+]1c(C)cc(N)c2ccccc21.[Cl-].[Cl-] [Dequalinium dichloride, 1,1′-Decamethylenebis(4-aminoquinaldinium) dichloride]","lymph vessel development phenotype (vegfr3 expression, in words)",[1],"poorly developed, stunted lymphatics emerging from the ALS and ALH and hypoplastic PLV"
same,Blood vessel phenotype,[1]; Xenopus embryos,normal
same,ALH phenotype,[1]; Xenopus embryos,stunted
same,ALS phenotype,[1]; Xenopus embryos,stunted
same,PLV phenotype,[1]; Xenopus embryos,hypoplastic
same,Lethality (NF),Xenopus embryos; [3],39 NF
same,Type of edema Pericordial,Xenopus embryos; embryonic stage,39 embryonic stages according to Nieuwkoop and Faber (NF)
same,Lethality,Xenopus embryos; embryonic stage,39 embryonic stages according to Nieuwkoop and Faber (NF)
Cc1ccc(Cl)c(Nc2ccccc2C(=O)[O-])c1Cl.[Na+] [Meclotenamic acid sodium],ISV phenotype,[1]; Xenopus embryos,impaired
same,PCV phenotype,[1]; Xenopus embryos,hypoplastic
same,VVN phenotype,[1]; Xenopus embryos,hypoplastic
same,Embr. phen.,Xenopus embryos,EDE
CC[C@H](C)C(=O)O[C@H]1CCC=C2C=C[C@H](C)[C@H](CC[C@@H]3C[C@@H](O)CC(=O)O3)[C@H]21 [Mevastatin],"lymph vessel development phenotype (vegfr3 expression, in words)",[1],lymphangiogenesis was largely suppressed
same,Blood vessel phenotype,[1]; Xenopus embryos,normal
same,ALH phenotype,[1]; Xenopus embryos,impaired
same,ALS phenotype,[1]; Xenopus embryos,impaired
same,PLV phenotype,[1]; Xenopus embryos,hypoplastic
same,Lethality (NF),Xenopus embryos; [3],45 NF
same,Embr. phen.,Xenopus embryos,EDE
same,Type of edema Pericordial,Xenopus embryos; embryonic stage,35/36
same,Lethality,Xenopus embryos; embryonic stage,45 embryonic stages according to Nieuwkoop and Faber (NF)
same,Type of edema Ventral,Xenopus embryos; embryonic stage,41/42
same,Onset (NF),Xenopus embryos; [4],35/36
"O=C1C(SCCO)=C(SCCO)C(=O)c2ccccc21 [NSC 95397, 2,3-bis[(2-Hydroxyethyl)thio]-1,4-naphthoquinone]",ISV phenotype,[1]; Xenopus embryos,impaired
same,PCV phenotype,[1]; Xenopus embryos,hypoplastic
same,VVN phenotype,[1]; Xenopus embryos,hypoplastic
same,Lethality (NF),Xenopus embryos; [2],40 NF
CC(C)[C@H](CO)Nc1nc(Nc2cccc(Cl)c2)c2ncn(C(C)C)c2n1 [Purvalanol A],"blood vessel development phenotype (apj expression, in words)",[1],only interfered with the assembly of the VVN
same,Lymphatic phenotype,[1]; Xenopus embryos,normal
same,ISV phenotype,[1]; Xenopus embryos,normal
same,PCV phenotype,[1]; Xenopus embryos,normal
same,VVN phenotype,[1]; Xenopus embryos,hypoplastic
same,Lethality (NF),Xenopus embryos; [2],41/42
same,Embr. phen.,Xenopus embryos,LET
"CC#CCOC(=O)c1c(C)nc2sc3c(c2c1N)CCC(O)C3 (stereo not shown) [SB 205384, 4-Amino-7-hydroxy-2-methyl-5,6,7,8-tetrahydrobenzo[b]thieno[2,3-b]pyridine-3-carboxylic acid but-2-ynyl ester]",Lethality (NF),"Xenopus embryos; compounds causing other phenotypic defects, 20 μM, scored to stage 47",46 NF
same,Onset (NF),Xenopus embryos; [5],40 NF
"COc1ccc(CCCOC(Cn2ccnc2)c2ccc(OC)cc2)cc1.Cl (stereo not drawn) [SKF 96365, 1-(beta-[3-(4-Methoxyphenyl)propoxy]-4-methoxyphenethyl)-1H-imidazole hydrochloride]",Lethality (NF),Xenopus embryos; [3],41/42
same,Type of edema Pericordial,Xenopus embryos; embryonic stage,39 embryonic stages according to Nieuwkoop and Faber (NF)
same,Type of edema Proctodeal,Xenopus embryos; embryonic stage,40 embryonic stages according to Nieuwkoop and Faber (NF)
same,Lethality,Xenopus embryos; embryonic stage,41/42
same,Type of edema Ventral,Xenopus embryos; embryonic stage,40 embryonic stages according to Nieuwkoop and Faber (NF)
"O=C(O)c1ccccc1Nc1cccc(OCc2ccc3ccccc3n2)c1 [SR 2640, 2-[[3-(2-Quinolinylmethoxy)phenyl]amino]-benzoic acid]",Lethality (NF),Xenopus embryos; [6],32 NF
"C[n+]1cc2c3c(ccc2c2ccc4cc5c(cc4c21)OCO5)OCO3.[Cl-] [Sanguinarine chloride, 13-Methyl-[1,3]benzodioxolo[5,6-c]-1,3-dioxolo[4,5-i]phenanthridinium chloride]",Lethality (NF),Xenopus embryos; [6],32 NF
"CCN1/C(=C/C(C)=O)Sc2ccc(OC)cc21 [TG003, (Z)-1-(3-Ethyl-5-methoxy-2,3-dihydrobenzothiazol-2-ylidene)-propan-2-one]",Lethality (NF),Xenopus embryos; [2],40 NF
C/C(=C\c1ccc(C(=O)O)cc1)c1ccc2c(c1)C(C)(C)CCC2(C)C [TTNPB],Lethality (NF),Xenopus embryos; [3],45 NF
same,Type of edema Proctodeal,Xenopus embryos; embryonic stage,41/42
same,Type of edema Pronephric,Xenopus embryos; embryonic stage,39 embryonic stages according to Nieuwkoop and Faber (NF)
same,Type of edema Cerebral,"Xenopus embryos; embryonic stage, + = cerebral edema extending dorso-anteriorly and displacing the eyes",41/42+
same,Lethality,Xenopus embryos; embryonic stage,45 embryonic stages according to Nieuwkoop and Faber (NF)
same,Type of edema Ventral,Xenopus embryos; embryonic stage,41/42
same,Onset (NF),Xenopus embryos; [4],39 NF
C/C=C(/C)C(=O)O[C@H]1C(C)=C2[C@H]([C@@H]1OC(=O)CCCCCCC)[C@@](C)(OC(C)=O)C[C@H](OC(=O)CCC)[C@@]1(O)[C@H]2OC(=O)[C@@]1(C)O [Thapsigargin],Lethality (NF),Xenopus embryos; [6],32 NF
"CC(C)(C)c1cc(C=C(C#N)C#N)cc(C(C)(C)C)c1O [Tyrphostin A9, [[3,5-bis(1,1-Dimethylethyl)-4-hydroxyphenyl]methylene]-propanedinitrile]",Lethality (NF),Xenopus embryos; [6],32 NF
"CC(C)(C)c1cc(C=C(C#N)C(N)=S)cc(C(C)(C)C)c1O [Tyrphostin AG 879, alpha-cyano-(3,5-di-t-butyl-4-hydroxy)thiocinnamide]",Lethality (NF),Xenopus embryos; [6],32 NF
"C#C[C@]1(O)CC[C@H]2[C@@H]3CCC4=Cc5nc6nc7ccccc7n6cc5C[C@]4(C)[C@H]3CC[C@@]21C [WIN 62,577, 17-beta-Hydroxy-17-alpha-ethynyl-delta-4-androstano(3,2-b)pyrimido(1,2-a)benzimidazole]",Lethality (NF),"Xenopus embryos; compounds causing pigmentation defects, 20 μM, scored to stage 47",42 NF
same,Onset (NF),Xenopus embryos; [7],33/34
"COC[C@H]1OC(=O)c2coc3c2[C@@]1(C)C1=C(C3=O)[C@@H]2CCC(=O)[C@@]2(C)C[C@H]1OC(C)=O [Wortmannin from Penicillium funiculosum, Wortmannin]",Lethality (NF),Xenopus embryos; [6],33/34
C[C@]12CC[C@@H]3c4ccc(O)cc4CC[C@H]3[C@@H]1CC[C@@H]2O [beta-Estradiol],Type of edema Periocular,"Xenopus embryos; embryonic stage, * = causing bulging eyes, # = bilateral, causing narrow-set eyes",42 # embryonic stages according to Nieuwkoop and Faber (NF)
same,Onset (NF),Xenopus embryos; [4],42 NF
CC1(C)CCC2=C(O1)c1ccccc1C(=O)C2=O [beta-Lapachone],Lethality (NF),Xenopus embryos; [6],32 NF
C[C@H](NC(=O)Cc1cc(F)cc(F)c1)C(=O)N[C@H]1N=C(c2ccccc2)c2ccccc2N(C)C1=O [compound E],edema or other phenotype in compound-treated Xenopus embryos/tadpoles (in words),"Xenopus embryos; 20 μM, 1% DMSO, treatment from stage 31",potently induces edemas
"C[C@]12CC[C@H](O)CC1=CC[C@@H]1[C@@H]2CC[C@]2(C)C(=O)CC[C@@H]12 [trans-Dehydroandrosterone, 5-Androsten-3beta.ol-17-one]",Onset (NF),Xenopus embryos; [5],41/42
"Dequalinium analog, C-14 linker",Lethality (NF),Xenopus embryos; [6],32 NF
Ivermectin,Lethality (NF),Xenopus embryos; [2],41/42
R(-)-Propylnorapomorphine hydrochloride,Onset (NF),Xenopus embryos; [7],33/34
